Data from patent publication US20170281624A1, “COMBINATION THERAPIES OF ALK INHIBITORS” (Novartis AG, priority 2014, published 2017).

Assays:
ALK-positive NSCLC = experiment: Clinical study of LDK378 in ALK-positive NSCLC patients, 750 mg dose group; format: in vivo, human
[1] = system: PD-L1 (CD274) in H3122 cells; experiment: PD-L1 (CD274) expression by TaqMan real time PCR and flow cytometry; format: cell-based, human
Method: This example evaluates the effects of selected therapeutic agent LDK378 on PD-L1 (CD274) modulation. LDK378 was examined by real time PCR and flow cytometry on PD-L1 levels.
TaqMan RT PCR assays were developed to detect changes of expression levels of PD-L1 (CD274) in cell lines and xenograft tumors. mRNA was isolated from frozen cell pellets or tumor fragments using the Qiagen RNeasy Mini kit. Isolated RNA was frozen at −80° C. RNA quality was checked and RNA was quantified using a 2100 Agilent Bioanalyzer following the protocol for the Agilent RNA 6000 Nano Kit. cDNA was prepared using a High Capacity RNA-to cDNA Kit (Applied Biosystems).
Real-time PCR reactions were carried out in 20 μl total volume, including 10 μl of Universal PCR master mix (Applied Biosystems), 1 μl of human PD-L1 (CD274) probe/primer set (Applied Biosystems), and 8 μl of cDNA. Each sample was run in triplicate. The amount of cDNA produced from 25-50 ng of RNA in the reverse transcription reaction was used in each PCR reaction. Due to difference in mRNA levels between PD-L1 and GAPDH, the two real-time PCR reactions were done in separate tubes using same amount of cDNA. The real-time PCR reaction was run on the C1000 Thermal Cycle (BioRad) with the cycle program as follows: a 10 minute incubation at 95° C. followed by 40 cycles of 95° C. for 15 seconds and 60° C. for 1 minute. […]

[2] = ceritinib trials; cited from earlier work

In the case of Cc1cc(Nc2ncc(Cl)c(Nc3ccccc3S(=O)(=O)C(C)C)n2)c(OC(C)C)cc1C1CCNCC1 [LDK378, 5-chloro-N^2-(2-isopropoxy-5-methyl-4-(piperidin-4-yl)phenyl)-N^4-[2-(propane-2-sulfonyl)-phenyl]-pyrimidine-2,4-diamine], the “median progression-free survival (PFS)” value (ALK-positive NSCLC; 750 mg, 53.3% of the patients censored) is reported as 8.21 months, the “median time to response” value (ALK-positive NSCLC; 144 patients with confirmed CR or PR, 750 mg) is reported as 6.1 weeks and the “overall response rate (ORR)” value (ALK-positive NSCLC; 246 ALK-positive NSCLC patients, 750 mg dose group (RD)) is reported as 58.5%. For the same molecule, the ORR (ALK-positive NSCLC; ALK inhibitor-naïve patients) was 66.3%, the “patients who achieved a response within 12 weeks” value (ALK-positive NSCLC; among the 144 patients with confirmed CR or PR, 750 mg) was 86.1% and the “estimated median duration of response (DOR)” value (ALK-positive NSCLC; investigator assessment, 750 mg) was 9.69 months. The ORR (ALK-positive NSCLC; patients treated with a prior ALK inhibitor) was 54.6%, the “PD-L1 mRNA” value ([1]; H3122 (NSCLC with ALK translocation) in vitro, FIG. 1) was “Inhibition” and the “PD-L1 levels on tumor cells” value ([1]; real time PCR and flow cytometry) was “Significant inhibition”. For the same molecule, the immune-related adverse events [2] was “have not been frequently reported”.
